Experimental findings from paper PMC6176332, “Studies on the Interaction between Three Small Flavonoid Molecules and Bovine Lactoferrin” (BioMed Research International, 2018) are described below.

The assay addresses T1, bovine lactoferrin (BLF) (Bos taurus, UniProt P24627).
T1 construct: gene LTF
Nature of the assay: intrinsic fluorescence quenching (excitation […] nm), double-log plot. The following applies: 0.05 M phosphate buffer, pH 7.4, 300 K, about 1% ethanol; n = 1.076; in 1/M. It is filed as binding.

T1 sequence (P24627 20-708): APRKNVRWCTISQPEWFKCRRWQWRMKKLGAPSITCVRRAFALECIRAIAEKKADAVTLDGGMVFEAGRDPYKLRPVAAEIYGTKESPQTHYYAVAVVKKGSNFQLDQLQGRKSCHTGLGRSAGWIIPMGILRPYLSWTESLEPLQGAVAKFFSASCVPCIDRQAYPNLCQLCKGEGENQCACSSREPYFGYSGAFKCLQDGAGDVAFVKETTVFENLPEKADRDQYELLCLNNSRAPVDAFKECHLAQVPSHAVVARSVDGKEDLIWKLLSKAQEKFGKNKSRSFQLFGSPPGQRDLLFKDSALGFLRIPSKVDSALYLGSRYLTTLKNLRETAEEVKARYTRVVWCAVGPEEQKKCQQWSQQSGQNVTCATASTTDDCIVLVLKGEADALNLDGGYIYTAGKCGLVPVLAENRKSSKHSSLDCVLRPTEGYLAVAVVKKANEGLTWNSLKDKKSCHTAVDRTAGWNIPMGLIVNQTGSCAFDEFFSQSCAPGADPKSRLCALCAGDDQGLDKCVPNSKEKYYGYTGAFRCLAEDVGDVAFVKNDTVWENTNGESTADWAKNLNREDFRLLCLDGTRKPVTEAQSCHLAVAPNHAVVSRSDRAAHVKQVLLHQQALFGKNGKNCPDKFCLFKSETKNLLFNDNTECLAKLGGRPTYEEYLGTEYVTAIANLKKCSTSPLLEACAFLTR

As to `O=C1C[C@@H](c2ccc(O)cc2)Oc2cc(O)cc(O)c21` [Naringenin], the “Ka (×10^4M^-1)” value was 3.05 ×10^4.
